Data: PubChem BioAssay (NCI)
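Following 48 hours of exposure in 96-well plates, responses at five concentrations were used to interpolate endpoints linearly. TGI marks complete inhibition of growth.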

How the values were obtained:
Assay in all cases: NCI anticancer screen, dose series, 48 h
[1] = tested on: 786-0 renal
[2] = tested on: A549 NSCLC
[3] = tested on: ACHN renal
[4] = tested on: BT-549 breast
[5] = tested on: EKVX NSCLC
[6] = tested on: HCC-2998 colon
[7] = tested on: HL-60(TB) leukemia
[8] = tested on: HOP-92 NSCLC
[9] = tested on: MDA-MB-231 breast
[10] = tested on: MOLT-4 leukemia
[11] = tested on: NCI-H460 lung
[12] = tested on: OVCAR-5 ovarian
[13] = tested on: OVCAR-8 ovarian
[14] = tested on: SF-295 CNS
[15] = tested on: T-47D breast
[16] = tested on: CCRF-CEM leukemia
[17] = tested on: NCI-H522 lung
[18] = tested on: SF-268 CNS
[19] = tested on: SR leukemia
[20] = tested on: A498 renal

SMILES | TGI [1] [µM] | TGI [2] [µM] | TGI [3] [µM] | TGI [4] [µM] | TGI [5] [µM] | TGI [6] [µM] | TGI [7] [µM] | TGI [8] [µM] | TGI [9] [µM] | TGI [10] [µM] | TGI [11] [µM] | TGI [12] [µM] | TGI [13] [µM] | TGI [14] [µM] | TGI [15] [µM] | TGI [16] [µM] | TGI [17] [µM] | TGI [18] [µM] | TGI [19] [µM] | TGI [20] [µM]
COc1cc(/C=C2/C(=O)N=C(NC(C)=O)N2C)ccc1OC(C)=O | > 100 | > 100 | > 100 | > 100 | > 100 | > 100 | > 100 | > 100 | > 100 | > 100 | > 100 | > 100 | > 100 | > 100 | > 100 | – | – | – | – | –
Cc1cccc(Nc2nc(NNC(=O)Cc3ccccc3)nc(NNC(=O)c3ccncc3)n2)c1 | > 10 | > 10 | > 10 | > 10 | > 10 | > 10 | > 10 | > 10 | > 10 | > 10 | > 10 | – | > 10 | > 10 | > 10 | > 10 | > 10 | > 10 | > 10 | –
Cc1cc(S(=O)(=O)Nc2nc(N)nc(N(C)C)n2)c(SC(C(=O)O)c2ccccc2)cc1Cl (centres undefined) | > 10 | > 10 | > 10 | > 10 | > 10 | > 10 | > 10 | > 10 | – | > 10 | > 10 | > 10 | > 10 | > 10 | > 10 | > 10 | > 10 | > 10 | > 10 | > 10
Cc1cccc2c(N)c3cccc(C(=O)NCCN4CCOCC4)c3nc12 | 20.5 | 7.92 | 13.1 | 8.54 | 5.66 | > 100 | 1.2 | 23.2 | 4.55 | 1.71 | 14 | 8.7 | – | 10.9 | – | – | 1.86 | 1.19 | – | 5
Cc1cn(C2CC(N=[N+]=[N-])C(C(=O)O)O2)c(=O)[nH]c1=O (centres undefined) | > 100 | > 100 | > 100 | > 100 | > 100 | > 100 | > 100 | > 100 | > 100 | > 100 | > 100 | > 100 | > 100 | – | – | > 100 | > 100 | > 100 | > 100 | > 100
Cc1nc2ccc(S(=O)(=O)Nc3ccccc3Cl)cc2c(=O)n1NC(=O)CNc1ccccc1Cl | > 100 | > 100 | > 100 | > 100 | > 100 | > 100 | > 100 | > 100 | > 100 | > 100 | > 100 | > 100 | > 100 | > 100 | – | > 100 | > 100 | > 100 | > 100 | –
Cc1ccc(C2SC(N)=Nc3c2c(C)nn3C(=O)c2ccc(Cl)cc2)cc1 (centres undefined) | > 10 | > 10 | > 10 | > 10 | > 10 | > 10 | > 10 | > 10 | > 10 | > 10 | > 10 | > 10 | > 10 | > 10 | > 10 | > 10 | > 10 | > 10 | > 10 | –
COc1ccc(C(=O)C(CC2C(=O)CC(C)(C)C(C(=O)C(=O)Nc3c(C)cccc3C)C2=O)c2ccc(OC)cc2)cc1 (centres undefined) | > 100 | > 100 | > 100 | > 100 | > 100 | > 100 | > 100 | > 100 | > 100 | > 100 | > 100 | > 100 | > 100 | > 100 | – | > 100 | > 100 | > 100 | 91.9 | –
C=CCN(c1cc(OCc2ccccc2)c2c(c1)c(C)cn2S(=O)(=O)c1ccccc1)S(C)(=O)=O | > 100 | > 100 | > 100 | > 100 | > 100 | > 100 | > 100 | > 100 | > 100 | > 100 | > 100 | > 100 | > 100 | > 100 | > 100 | > 100 | > 100 | > 100 | > 100 | –
O=C1C(Cl)C(c2cccc(Br)c2)N1c1c(O)c(Cl)cc(Br)c1Cl (centres undefined) | > 100 | 40 | 37.6 | > 100 | 39 | 23.2 | 53.5 | 29 | 46 | 35.7 | 27.1 | 56.5 | > 100 | 31.1 | 44.6 | 41.3 | 30 | 44.3 | 56.3 | –
